Assay results as given in patent publication US9493482B2, “Compounds and methods for preventing or treating sensory hair cell death” (University of Washington, priority 2015, dated 2016).
Where a name gives a salt, the structure may show the parent alone.

Key:
[1] = Auditory Brainstem Response (ABR) Assay; assay type: in vivo, rats; details: Day 24 vs Day 0, FIG. 2
Protocol: Chronic treatment of rats with aminoglycosides (AGs) such as kanamycin or amikacin results in an elevation of ABR thresholds, typically most pronounced at higher frequencies. For rats, hearing is tested at a range of frequencies to determine the intensity of sound (measured in decibels) necessary to evoke a response. As hearing loss becomes more severe, a higher intensity is needed to evoke a response. Each rat serves as its own control; hearing thresholds are determined at each frequency prior to any treatment and then at 2 weeks after a 10-day course of AG treatment (or control drug exposures).
The ABR assay measures short latency field potentials recorded from the scalp of animals that were sedated or noninvasively immobilized. […] For each animal, hearing thresholds, wave 1 latencies and input-output functions for stimulus frequencies at 2, 4, 8, 16 and 32 kHz were measured prior to any treatment to determine the initial sensitivity and dynamic range of hearing, and then repeated at the end of drug treatment and at the end of the experiment (2-weeks after dosing). […]
ABR records were evaluated by a “blinded”, trained experimenter. Hearing loss (Threshold Shift) was determined by subtracting the threshold during pre-treatment (Day 0) from the final ABR threshold (Day 24; two weeks following treatment). […]

[2] = Effect of Amikacin and Compound 9 on Kidney Function: creatinine clearance; assay type: in vivo, Fischer 344 rats; details: FIG. 3
Protocol: (§1) The study consisted of three groups of Fischer 344 rats aged 6 weeks and weighing approximately 200 g at the start of the study. Group 1 consisted of six rats, randomly selected to receive amikacin only, Group 2 consisted of six rats chosen randomly to receive amikacin and compound 9, and Group 3 consisted of three rats, 2 rats given compound 9 and 1 rat given only 0.5% Methylcellulose, the diluent for compound 9. All animals receiving amikacin were given 320 mg/kg subcutaneously (SQ) from a freshly prepared solution of amikacin of 40 mg/mL. The compound 9 formulation was prepared by weighing 13.08 mg of compound 9 dissolved in 12 mL of 0.5% MC in saline with vortexing, sonification and homogenization to obtain a solution with concentration at 12 mg/12 mL=1 mg/mL, dose volume is 5 mL/kg (5 mg/kg). The compound 9 solution was given by oral gavage at a dose of 5 mg/kg.
(§2) One day prior to the onset of dosing, blood was drawn from all rats for serum analysis and all rats were put into metabolic cages for 24 hour urine collection and analysis. All rats were returned to normal cages and allowed to eat and drink ad lib. All rats received their assigned treatments for 10 days and then were returned to metabolic cages for the 10th day. […] The pathologist read the slides, blinded to the group from which they were assigned. […]

kidney = experiment: Kidney histopathology after amikacin with or without compound 9; assay type: in vivo, Fischer 344 rats; details: amikacin only, section type (longitudinal or cross) not stated, FIG. 4
Protocol: as §1, §2

SMILES	Hearing loss (Threshold Shift), high frequency ([1]; AMI/320 (amikacin SC 320 mg/kg/day) + Compound 9 PO 5 mg/kg/day for 10 days)	creatinine clearance (CrCl) post treatment vs baseline ([2]; Group 2: amikacin 320 mg/kg SQ + compound 9 5 mg/kg oral gavage for 10 days)	Hearing loss (Threshold Shift) ([1]; amikacin alone SC 320 mg/kg/day for 10 days)	kidney histopathology damage score (0-4) (kidney; first stated change (3.9 to 3.6))	kidney histopathology damage score (0-4) (kidney; second stated change (3.9 to 3.1))	creatinine clearance (CrCl) post treatment vs baseline ([2]; Group 1: amikacin only 320 mg/kg SQ for 10 days)
CN1[C@H]2CC[C@@H]1c1c(sc(NC(=O)Nc3ccc(Cl)cc3)c1C(N)=O)C2 [Compound 9, (4R,7S)-2-(3-(4-chlorophenyl)ureido)-9-methyl-5,6,7,8-tetrahydro-4H-4,7-epiminocyclohepta[b]thiophene-3-carboxamide hydrochloride]	robust protection	significantly different from baseline				
NCC[C@H](O)C(=O)N[C@@H]1C[C@H](N)[C@@H](O[C@H]2O[C@H](CN)[C@@H](O)[C@H](O)[C@H]2O)[C@H](O)[C@H]1O[C@H]1O[C@H](CO)[C@@H](O)[C@H](N)[C@H]1O [amikacin]			hearing loss	3.9	3.9	significantly different from baseline
